Measurements reported in US20030013744A1, “3,4-diaryl thiophenes and analogs thereof having use as anti-inflammatory agents” (G.D. Searle & Co., priority 1993, published 2003).
Like-named read-outs stand apart in the source and are kept apart here.

Key:
[1] = molecular target: T1, COX II enzyme (Mus musculus, UniProt Q05769); settings: J. Biol. Chem., 268, 6610 (1993); cited from earlier work
T1 sequence (Q05769 18-604): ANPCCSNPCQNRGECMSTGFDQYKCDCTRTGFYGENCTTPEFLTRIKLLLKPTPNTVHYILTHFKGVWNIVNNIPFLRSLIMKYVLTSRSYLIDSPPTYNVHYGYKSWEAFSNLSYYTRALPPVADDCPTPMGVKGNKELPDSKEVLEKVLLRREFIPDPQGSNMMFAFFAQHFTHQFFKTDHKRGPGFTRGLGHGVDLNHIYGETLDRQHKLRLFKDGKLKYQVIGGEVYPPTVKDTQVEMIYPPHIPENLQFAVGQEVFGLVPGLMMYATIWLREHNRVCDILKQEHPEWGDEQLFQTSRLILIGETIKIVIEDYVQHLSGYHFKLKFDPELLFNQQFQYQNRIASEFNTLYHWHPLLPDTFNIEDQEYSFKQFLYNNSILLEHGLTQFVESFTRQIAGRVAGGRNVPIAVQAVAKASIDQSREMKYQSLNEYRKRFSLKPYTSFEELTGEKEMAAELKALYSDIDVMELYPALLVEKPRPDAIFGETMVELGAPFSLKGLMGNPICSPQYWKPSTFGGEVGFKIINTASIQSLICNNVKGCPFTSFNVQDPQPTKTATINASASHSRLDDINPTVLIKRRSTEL

[2] = molecular target: T2, human COX I (Homo sapiens, UniProt P23219); experiment: Assay for COX I activity in vitro (PGE2 ELISA, recombinant enzyme); type: biochemical
T2 construct: A 2.0 kb fragment containing the coding region; made in house; host or cells: SF9 insect cells (baculovirus, transfer vector pVL1393)

[3] = molecular target: T3, human COX II (Homo sapiens, UniProt P35354); experiment: Assay for COX II activity in vitro (PGE2 ELISA, recombinant enzyme); type: biochemical
T3 construct: A 2.0 kb fragment containing the coding region; made in house; host or cells: SF9 insect cells (baculovirus, transfer vector pVL1393)
T3 sequence (P35354 18-604): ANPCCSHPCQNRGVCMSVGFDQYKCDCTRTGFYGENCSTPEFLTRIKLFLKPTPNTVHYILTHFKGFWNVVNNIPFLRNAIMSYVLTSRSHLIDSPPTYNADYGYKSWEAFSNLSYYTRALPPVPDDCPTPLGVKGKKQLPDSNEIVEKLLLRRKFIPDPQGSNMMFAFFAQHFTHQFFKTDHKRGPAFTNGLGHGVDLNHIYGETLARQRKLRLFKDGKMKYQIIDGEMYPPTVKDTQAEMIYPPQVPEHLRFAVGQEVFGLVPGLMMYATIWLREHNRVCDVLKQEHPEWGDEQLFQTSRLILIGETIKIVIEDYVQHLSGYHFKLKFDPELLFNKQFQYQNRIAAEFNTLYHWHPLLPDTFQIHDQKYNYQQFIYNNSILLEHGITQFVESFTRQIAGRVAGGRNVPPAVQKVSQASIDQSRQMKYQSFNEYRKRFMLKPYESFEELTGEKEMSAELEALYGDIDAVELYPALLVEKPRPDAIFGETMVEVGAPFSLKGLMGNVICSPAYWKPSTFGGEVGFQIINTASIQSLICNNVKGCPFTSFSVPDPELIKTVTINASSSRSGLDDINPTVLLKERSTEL

[4] = Whole Blood Assay for Thromboxane B2 Activity; type: cell-based; settings: calcium ionophore A23187
Experimental: Whole Blood Assay for Thromboxane B2 Activity:
Thromboxane B2 (TXB2) activity was assayed using an ELISA to detect the TXB2 released. Various concentrations of compounds and standards were prepared by a set of serial dilutions (1:3) in a microtiter plate with ethanol. In U-bottom microtiter plates, 50 μl whole blood (green top heparin), 150 μl RPMI media (JRH Biosciences) and 5 μl compound solution were mixed and preincubated at 37° C. for fifteen minutes prior to the addition 4 μg of the calcium ionophore A23187. Any reaction between the compounds and the cells was stopped after ten minutes at 37° C. by centrifuging the cells at 2000 rpm for ten minutes at 4° C. and transferring 20 μl of the supernatant into 180 μl ELISA enzyme immuno assay buffer. The TXB2 formed was measured by standard ELISA technology (Cayman Chemical). To washed and pre-coated (goat anti-rabbit IgG H&L) microtiter plates, was added 40 μl enzyme immuno assay buffer, 10 μl diluted supernatants, 50 μl […] and 50 μl TXB2 antisera. After covered overnight incubation at room temperature. 200 μl Ellman reagent was added and incubated. The absorbance was read at 405 nm with a 650 nm reference.

[5] = molecular target: T4, Murine COX I (Mus musculus, UniProt P22437); experiment: Assay for COX I activity in vitro (PGE2 ELISA, recombinant enzyme); type: biochemical; settings: read-out: Murine COX I ID50
T4 construct: A 2.0 kb fragment containing the coding region; made in house; host or cells: SF9 insect cells (baculovirus, transfer vector pVL1393)
T4 sequence (P22437 27-602): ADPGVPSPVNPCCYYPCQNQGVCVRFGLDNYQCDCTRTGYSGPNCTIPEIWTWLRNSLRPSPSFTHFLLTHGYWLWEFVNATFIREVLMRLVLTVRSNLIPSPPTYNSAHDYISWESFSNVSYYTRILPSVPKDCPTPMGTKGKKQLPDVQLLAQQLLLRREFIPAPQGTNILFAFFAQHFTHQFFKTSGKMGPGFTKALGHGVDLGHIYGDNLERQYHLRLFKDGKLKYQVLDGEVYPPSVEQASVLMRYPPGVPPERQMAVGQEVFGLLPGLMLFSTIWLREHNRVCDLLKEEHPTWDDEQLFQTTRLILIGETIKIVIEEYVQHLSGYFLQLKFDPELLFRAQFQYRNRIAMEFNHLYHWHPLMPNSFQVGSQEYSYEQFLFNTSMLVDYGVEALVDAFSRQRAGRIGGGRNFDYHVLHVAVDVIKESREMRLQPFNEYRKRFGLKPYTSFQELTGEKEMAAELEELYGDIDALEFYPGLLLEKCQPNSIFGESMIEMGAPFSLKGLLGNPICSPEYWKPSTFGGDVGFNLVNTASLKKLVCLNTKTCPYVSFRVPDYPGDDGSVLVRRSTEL

[6] = molecular target: T5, Murine COX II (Mus musculus, UniProt Q05769); experiment: Assay for COX II activity in vitro (PGE2 ELISA, recombinant enzyme); type: biochemical; settings: read-out: Murine COX II ID50
T5 construct: A 2.0 kb fragment containing the coding region; made in house; host or cells: SF9 insect cells (baculovirus, transfer vector pVL1393)
T5 sequence (Q05769 18-604): T1 sequence (Q05769 18-604)

[7] = Gen. Pharmac., 24, 105 (1993); cited from earlier work
[8] = Gen. Pharmac., 24, 105 (1993); cited from earlier work; remark: listed apart in the source

T2 sequence (P23219 24-599): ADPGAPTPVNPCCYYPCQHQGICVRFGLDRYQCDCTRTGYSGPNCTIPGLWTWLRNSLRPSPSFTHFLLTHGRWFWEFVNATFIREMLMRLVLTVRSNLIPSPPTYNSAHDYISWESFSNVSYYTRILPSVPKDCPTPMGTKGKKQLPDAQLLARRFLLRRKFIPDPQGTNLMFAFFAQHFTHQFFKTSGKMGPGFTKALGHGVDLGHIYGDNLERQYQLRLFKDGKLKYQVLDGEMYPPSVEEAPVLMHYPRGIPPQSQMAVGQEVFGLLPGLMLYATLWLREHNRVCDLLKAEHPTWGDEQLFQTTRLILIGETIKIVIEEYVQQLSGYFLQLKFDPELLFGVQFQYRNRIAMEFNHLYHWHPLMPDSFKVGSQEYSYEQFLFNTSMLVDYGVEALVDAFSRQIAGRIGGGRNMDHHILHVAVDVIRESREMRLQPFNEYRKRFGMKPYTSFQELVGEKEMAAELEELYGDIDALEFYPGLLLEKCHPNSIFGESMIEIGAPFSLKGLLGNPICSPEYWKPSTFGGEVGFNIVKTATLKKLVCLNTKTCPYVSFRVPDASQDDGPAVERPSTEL

## COc1ccc2cc(CC(=O)O)ccc2c1 [6-methoxy-2-napthylacetic acid]
[1]
  selective inhibition of the COX II enzyme: selectively inhibit the COX II enzyme

## CS(=O)(=O)c1ccc(-c2cscc2-c2ccc(F)cc2)cc1 [Example 1, 3-(4-Methylsulfonylphenyl)-4-(4-fluorophenyl)thiophene]
[2]
  IC50: > 100 µM
[3]
  IC50: < 0.1 µM
[4]
  IC50: 21 µM

## CS(=O)(=O)c1ccc(-c2csc(Br)c2-c2ccc(F)cc2)cc1 [Example 2, 4(4-Methylsulfonylphenyl)-3-(4-fluorophenyl)-2-bromothiophene]
[5]
  IC50: 3.5 µM
[4]
  IC50: 0.4 µM

## CS(=O)(=O)c1ccc(-c2c(Br)sc(Br)c2-c2ccc(F)cc2)cc1 [Example 3, 4-(4-Methylsulfonylphenyl)-3-(4-fluorophenyl)-2,5-dibromothiophene]
[6]
  IC50: 1.5 µM

## COc1ccc(-c2cscc2-c2ccc(OC)cc2)cc1 [Example 4, 3,4-Bis(4-methoxyphenyl)thiophene]
[5]
  IC50: 0.3 µM
[6]
  IC50: 0.8 µM
[4]
  IC50: < 0.1 µM

## CCOC(=O)c1scc(-c2ccc(S(C)(=O)=O)cc2)c1-c1ccc(F)cc1 [Example 5, Ethyl[4-(4-methylsulfonylphenyl)-3-(4-fluorophenyl)thien-2-yl]carboxylate]
[5]
  IC50: > 3 µM
[6]
  IC50: < 0.1 µM

## COc1ccc(-c2cscc2-c2ccc(S(C)(=O)=O)cc2)cc1 [Example 6, 3-(4-Methylsulfonylphenyl)-4-(4-methoxyphenyl)thiophene]
[5]
  IC50: < 0.3 µM
[6]
  IC50: < 0.1 µM

## COc1ccc(-c2c(-c3ccc(S(C)(=O)=O)cc3)csc2Br)cc1 [Example 7, 3-(4-Methylsulfonylphenyl)-4-(4-methoxyphenyl)-5-bromothiophene]
[5]
  IC50: < 0.1 µM
[6]
  IC50: < 0.1 µM
[4]
  IC50: < 0.1 µM

## CCOC(=O)c1sc(C(=O)O)c(-c2ccc(F)cc2)c1-c1ccc(S(C)(=O)=O)cc1 [Example 8, 2-Ethoxycarbonyl-4-(4-fluorophenyl)-3-(4-methanesulfonylphenyl)-thienyl-5-carboxylic acid]
[5]
  IC50: > 100 µM
[6]
  IC50: 5.5 µM

## CS(=O)(=O)c1ccc(-c2c(C(=O)O)sc(C(=O)O)c2-c2ccc(F)cc2)cc1 [Example 9, 4-(4-Fluorophenyl)-3-(4-methanesulfonylphenyl)thienyl-2,5-dicarboxylic acid]
[5]
  IC50: > 100 µM
[6]
  IC50: 4.7 µM

## CS(=O)(=O)c1ccc(-c2cscc2-c2ccccc2)cc1 [Example 10, 3-(4-Methanesulfonylphenyl)-4-phenyl-thiophene]
[5]
  IC50: > 10 µM
[6]
  IC50: < 0.1 µM
[4]
  IC50: 7 µM

## Cc1ccc(-c2cscc2-c2ccc(S(C)(=O)=O)cc2)cc1 [Example 11, 3-(4-Methanesulfonylphenyl)-4-(4-methylphenyl)thiophene]
[5]
  IC50: > 100 µM
[6]
  IC50: < 0.1 µM
[4]
  IC50: 7 µM

## NS(=O)(=O)c1ccc(-c2cscc2-c2ccc(F)cc2)cc1 [Example 12, 4-[4-(4-Fluorophenyl)thien-3-yl]benzenesulfonamide]
other
  melting point: 194 to 195 °C

## CS(=O)(=O)c1ccc(-c2cocc2-c2ccc(F)cc2)cc1 [Example 13, 3-(4-Fluorophenyl)-4-(methylsulfonylphenyl)furan]
[2]; human COX I enzyme (footnote *), read-out: COX I ID50
  IC50: > 100 µM
[3]; human COX II enzyme (footnote *), read-out: COX II ID50
  IC50: 1.9 µM
other
  melting point: 160 to 161 °C

## CS(=O)(=O)c1ccc(-c2cscc2-c2ccc(F)nc2)cc1 [Example 14]
[5]
  IC50: > 10 µM
[6]
  IC50: 0.2 µM
[4]
  IC50: 27 µM
other
  melting point: 190 to 191 °C (dec.)

## Cc1cc(F)ccc1-c1cscc1-c1ccc(S(C)(=O)=O)cc1 [Example 15, 3-(4-Methylsulfonylphenyl)-4-(2-methyl-4-fluorophenyl)thiophene]
[5]
  IC50: 8.5 µM
[4]
  IC50: 28 µM
other
  melting point: 158 to 160 °C

## CS(=O)(=O)Nc1ccc([N+](=O)[O-])cc1OC1CCCCC1 [N-(2-cyclohexyloxy-4-nitrophenyl)methanesulfonamide]
[7]
  antiinflammatory activity: antiinflammatory
[8]
  gastric side effects: lacks gastric side effects
